System: GB126, GB239 and GB86 patient-derived cell lines
Experiment: In vitro single-cell RNA sequencing, analyses across the cell lines (pseudobulk differential gene expression, GSEA, non-cycling cells)
Type: cell-based, human
Conditions: pseudobulk, ribociclib versus control (DMSO)
Experimental: Patient-derived glioma stem cell lines (GSCs; GB126, GB86, and GB239) were established from resected GBM tumor tissue. Cell lines were genetically profiled for mutations and copy number aberrations using the IvySeq custom gene panel. […] GB239 was derived from a tumor sample included in this Phase 0 trial (tumor sample: 100-0039). All human GSCs were cultured as described previously.[12]
Following the fifth day of drug exposure, cells were harvested, cryopreserved to be processed at a later point, or immediately processed for single-cell RNA sequencing (10x Genomics, 3’ version 3). The single-cell RNA sequencing data were then processed via cellranger count and Seurat. Briefly, cells were filtered out based on the following criteria: minimum number of genes detected >500 and <10 000 with a maximum percentage of mitochondrial genes set to 10%. Statistical assessment was made between the malignant proportions of each cell state using a 2-sided paired t-test.
Descriptive statistics of the clinical data are included in Table 1. Comparisons between groups were conducted using a 2-sided or paired 2-sided t-test, where indicated. P < .05 was considered significant. Multiple hypothesis test corrections (ie, false discovery rate correction) were applied for snRNAseq pseudobulk differential expression analysis.

log2FoldChange CYP4Z1 (gene CYP4Z1): 1.554
Structure (SMILES): CN(C)C(=O)c1cc2cnc(Nc3ccc(N4CCNCC4)cn3)nc2n1C1CCCC1 [ribo]
log2FoldChange ABCA6 (gene ABCA6): 1.5
log2FoldChange ABCA8 (gene ABCA8): 1.548
log2FoldChange AC002074.1 (gene AC002074.1): 1.866
log2FoldChange AC002383.1 (gene AC002383.1): 1.53
log2FoldChange AC004828.1 (gene AC004828.1): 1.459
log2FoldChange AC005538.3 (gene AC005538.3): 2.148
log2FoldChange AC007317.2 (gene AC007317.2): 2.061
log2FoldChange AC009313.1 (gene AC009313.1): 1.78
log2FoldChange AC009975.2 (gene AC009975.2): 1.436
log2FoldChange AC010230.1 (gene AC010230.1): 1.7556
log2FoldChange AC010551.3 (gene AC010551.3): 1.556
log2FoldChange AC012038.2 (gene AC012038.2): 2.048
log2FoldChange AC012405.1 (gene AC012405.1): 1.439
log2FoldChange (gene AC012533.1): -1.092
log2FoldChange AC012625.1 (gene AC012625.1): 1.675
log2FoldChange AC013480.1 (gene AC013480.1): 1.662
log2FoldChange AC020892.1 (gene AC020892.1): 1.613
log2FoldChange AC023644.1 (gene AC023644.1): 1.813
log2FoldChange (gene AC024884.2): -1.745
log2FoldChange AC025263.1 (gene AC025263.1): 1.435
log2FoldChange (gene AC026333.4): -1.805
log2FoldChange AC026888.1 (gene AC026888.1): 1.994
log2FoldChange AC027117.1 (gene AC027117.1): 1.702
log2FoldChange AC055874.1 (gene AC055874.1): 1.6992
log2FoldChange AC073611.1 (gene AC073611.1): 1.444
log2FoldChange AC079117.1 (gene AC079117.1): 1.6417
log2FoldChange AC090403.1 (gene AC090403.1): 1.628
log2FoldChange AC091953.1 (gene AC091953.1): 1.742
log2FoldChange AC092604.1 (gene AC092604.1): 1.65
log2FoldChange AC092617.1 (gene AC092617.1): 2.048
log2FoldChange AC092691.3 (gene AC092691.3): 1.975
log2FoldChange AC096576.2 (gene AC096576.2): 1.586
log2FoldChange AC096576.3 (gene AC096576.3): 1.66
log2FoldChange AC097375.4 (gene AC097375.4): 1.562
log2FoldChange (gene AC099850.3): -1.64
log2FoldChange AC100835.2 (gene AC100835.2): 1.894
log2FoldChange AC104078.2 (gene AC104078.2): 1.507
log2FoldChange AC104574.1 (gene AC104574.1): 1.483
log2FoldChange AC106874.1 (gene AC106874.1): 1.556
log2FoldChange AC109129.1 (gene AC109129.1): 1.6709
log2FoldChange AC110296.1 (gene AC110296.1): 1.762
log2FoldChange AC114546.2 (gene AC114546.2): 1.559
log2FoldChange AC114964.2 (gene AC114964.2): 1.675
log2FoldChange (gene AC116914.1): -1.614
log2FoldChange AC121154.1 (gene AC121154.1): 1.879
log2FoldChange AC132153.1 (gene AC132153.1): 1.518
log2FoldChange AC133530.1 (gene AC133530.1): 1.513
log2FoldChange AC137579.1 (gene AC137579.1): 1.549
log2FoldChange (gene AC138819.1): -1.883
log2FoldChange ACSM5 (gene ACSM5): 2.672
log2FoldChange (gene ACYP1): -1.092
log2FoldChange ADAMTS4 (gene ADAMTS4): 1.636
log2FoldChange ADCY5 (gene ADCY5): 1.503
log2FoldChange ADGRA1-AS1 (gene ADGRA1-AS1): 1.641
log2FoldChange ADH1A (gene ADH1A): 1.456
log2FoldChange AL022324.3 (gene AL022324.3): 1.692
log2FoldChange (gene AL031658.2): -1.667
log2FoldChange AL132633.1 (gene AL132633.1): 1.623
log2FoldChange (gene AL132655.3): -1.059
log2FoldChange AL135934.1 (gene AL135934.1): 1.5674
log2FoldChange (gene AL138789.1): -1.6906
log2FoldChange AL158058.1 (gene AL158058.1): 2.1266
log2FoldChange AL162385.1 (gene AL162385.1): 2.332
log2FoldChange AL354813.1 (gene AL354813.1): 1.4344
log2FoldChange AL355916.2 (gene AL355916.2): 1.536
log2FoldChange (gene AL356094.2): -1.675
log2FoldChange AL358394.1 (gene AL358394.1): 2.818
log2FoldChange (gene AL390839.2): -1.735
log2FoldChange AL391730.2 (gene AL391730.2): 1.804
log2FoldChange AL445423.1 (gene AL445423.1): 1.473
log2FoldChange AL591686.1 (gene AL591686.1): 1.912
log2FoldChange (gene AL645608.7): -1.064
log2FoldChange (gene ANP32E): -1.059
log2FoldChange AP000569.1 (gene AP000569.1): 1.498
log2FoldChange AP000857.2 (gene AP000857.2): 1.634
log2FoldChange AP001825.1 (gene AP001825.1): 1.5203
log2FoldChange AP002370.2 (gene AP002370.2): 1.537
log2FoldChange AP002761.2 (gene AP002761.2): 1.672
log2FoldChange (gene ARHGAP11A): -1.6744
log2FoldChange ARHGAP26-IT1 (gene ARHGAP26-IT1): 2.344
log2FoldChange (gene ARNTL2): -1.092
log2FoldChange ASB9 (gene ASB9): 1.438
log2FoldChange BAIAP3 (gene BAIAP3): 1.561
log2FoldChange BBOX1 (gene BBOX1): 1.457
log2FoldChange (gene BRIP1): -1.784
log2FoldChange BST2 (gene BST2): 1.645
log2FoldChange (gene BUB1): -1.8
log2FoldChange (gene C1QTNF2): -1.812
log2FoldChange C1orf147 (gene C1orf147): 1.503
log2FoldChange C16orf89 (gene C16orf89): 1.4386
log2FoldChange C20orf78 (gene C20orf78): 1.576
log2FoldChange (gene C21orf58): -1.614
log2FoldChange CALB2 (gene CALB2): 2.123
log2FoldChange (gene CAMK2N2): -1.147
log2FoldChange (gene CCDC74A): -1.6
log2FoldChange (gene CCDC74B): -1.688
log2FoldChange (gene CCNE2): -1.873
log2FoldChange (gene CCNF): -1.863
log2FoldChange (gene CDCA4): -1.7252
log2FoldChange (gene CDKN3): -1.855
log2FoldChange (gene CHAF1B): -1.654
log2FoldChange CHGA (gene CHGA): 1.609
log2FoldChange CHI3L1 (gene CHI3L1): 1.918
log2FoldChange CHL1-AS1 (gene CHL1-AS1): 1.667
log2FoldChange CHST4 (gene CHST4): 1.465
log2FoldChange CLEC1A (gene CLEC1A): 1.693
log2FoldChange (gene CRHR1): -1.091

— article PMC13070491, “Single-nucleus transcriptomics, pharmacokinetics, and pharmacodynamics of CDK4/6 and mTOR inhibition in a Phase 0/1 trial of recurrent high-grade glioma” (Neuro-Oncology, 2025)
